Values of other authors, collected in paper PMC3341666 (Biochemistry, 2009).

Columns and labels:
[1] = biological target: Prostate-Specific Antigen (PSA) (Homo sapiens, UniProt P07288); details: introduction statement, no reference given
Bovine α-Chymotrypsin = Bovine α-Chymotrypsin (Bos taurus, UniProt P00766); details: previous study

Sequence of Prostate-Specific Antigen (PSA) (P07288 25-261): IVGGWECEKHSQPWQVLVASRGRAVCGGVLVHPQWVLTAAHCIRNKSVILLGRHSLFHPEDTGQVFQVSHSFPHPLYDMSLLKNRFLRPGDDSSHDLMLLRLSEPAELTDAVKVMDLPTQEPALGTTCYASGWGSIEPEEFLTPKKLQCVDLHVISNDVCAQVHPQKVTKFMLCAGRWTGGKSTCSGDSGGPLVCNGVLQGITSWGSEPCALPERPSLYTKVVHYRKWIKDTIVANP

fold higher Ki for chymotrypsin (vs PSA) (Bovine α-Chymotrypsin) | Compound | PSA inhibition (in words) [1]
 | Cc1ccc(S(=O)(=O)N[C@@H](Cc2ccccc2)C(=O)CCl)cc1 [TPCK, tosyl-phenylalanine chloromethylketone] | poor PSA inhibitors
 | O=S(=O)(F)Cc1ccccc1 [PMSF, phenylmethylsulphonyl fluoride] | poor PSA inhibitors
~ 65 fold | Z-SSKL(boro)L | 
